Experimental data taken from patent publication US6518272B2, “Cycloalkyl-substituted aryl-piperazines, piperidines and tetrahydropyridines as serotonergic agents” (Wyeth, priority 1998, dated 2003).
Where a name gives a salt, the structure may show the parent alone.

Test system: not given
Test: not given
Settings: not given

Row | Compound | melting point [°C]
1 | COc1ccccc1C1CCN(C[C@@H](CC2CCCCC2)NC(=O)C(C)(C)C)CC1 (as salt: hydrochloride) (hydrate or solvate) [Example 19, N-{(1R)-1-Cyclohexylmethyl-2-[4-(2-methoxyphenyl)-piperidin-1-yl]-ethyl}-2,2-dimethyl-propionamide] | 97 to 99
2 | COc1ccccc1N1CCN(C[C@@H](CC2CCCCC2)NC=O)CC1 (as salt: hydrochloride) (hydrate or solvate) [Example 9, N-{(1R)-1-Cyclohexylmethyl-2-[4-(2-methoxyphenyl)-piperazin-1-yl]-ethyl}-formamide] | 157 to 159
3 | CN(C(=O)C1CCCCC1)[C@H](CC1CCCCC1)CN1CCN(c2cccc3[nH]ccc23)CC1 (as salt: hydrochloride) (hydrate or solvate) [Example 7, Cyclohexanecarboxylic Acid {(1R)-1-Cyclohexylmethyl-2-[4-(1H-indol-4-yl)-piperazin-1-yl]-ethyl}-methyl-amide] | > 260
4 | COc1ccccc1C1CCN(C[C@@H](CC2CCCCC2)N(C)C(=O)C2CCCCC2)CC1 (as salt: hydrochloride) (hydrate or solvate) [Example 17, Cyclohexanecarboxylic Acid {(1R)-1-Cyclohexylmethyl-2-[4-(2-methoxyphenyl)-piperidin-1-yl]-ethyl}-methyl-amide] | 135 to 137
5 | COc1ccccc1C1=CCN(C[C@@H](CC2CCCCC2)NC(=O)C2(C)CCCCC2)CC1 (as salt: hydrochloride) (hydrate or solvate) [Example 21, 1-Methyl-cyclohexanecarboxylic Acid {(1R)-1-Cyclohexylmethyl-2-[4-(2-methoxyphenyl)-3,6-dihydro-2H-pyridin-1-yl]-ethyl}-amide] | 93 to 95
6 | COc1ccccc1N1CCN(C[C@@H](CC2CCCCC2)N(C)C(=O)C2(C)CCCCC2)CC1 (as salt: hydrochloride) [Example 4, 1-Methyl-cyclohexanecarboxylic Acid {(1R)-1-Cyclohexylmethyl-2-[4-(2-methoxyphenyl)-piperazin-1-yl]-ethyl}-methyl-amide] | 208 to 210
7 | COc1ccccc1C1CCN(C[C@@H](CC2CCCCC2)N(C)C(=O)C(C)(C)C)CC1 (as salt: hydrochloride) (hydrate or solvate) [Example 20, N-{(1R)-1-Cyclohexylmethyl-2-[4-(2-methoxyphenyl)-piperidin-1-yl]-ethyl}-2,2,N-trimethyl-propionamide] | 233 to 236
8 | CN(C(=O)C1(C)CCCCC1)[C@H](CC1CCCCC1)CN1CCN(c2cccc3[nH]ccc23)CC1 (as salt: hydrochloride) [Example 8] | 253 to 254
9 | CN(C(=O)C1CCCCC1)[C@H](CC1CCCCC1)CN1CCN(c2cccc3c2OCCO3)CC1 (as salt: hydrochloride) (hydrate or solvate) [Example 5] | 147 to 148
10 | CN(C(=O)C1(C)CCCCC1)[C@H](CC1CCCCC1)CN1CCN(c2cccc3c2OCCO3)CC1 (as salt: hydrochloride) [Example 6, 1-Methyl-cyclohexanecarboxylic Acid {(1R)-1-Cyclohexylmethyl-2-[4-(2,3-dihydro-benzo[1,4]dioxin-5-yl)-piperazin-1-yl]-ethyl}-methyl-amide] | 219 to 220
11 | COc1ccccc1C1CCN(C[C@@H](CC2CCCCC2)NC(=O)C2(C)CCCCC2)CC1 (as salt: hydrochloride) (hydrate or solvate) [Example 16, 1-Methyl-cyclohexanecarboxylic acid {(1R)-1-cyclohexylmethyl-2-[4-(2-methoxyphenyl)-piperidin-1-yl]-ethyl}-amide] | 208 to 210
12 | COc1ccccc1C1CCN(C[C@@H](CC2CCCCC2)N(C)C(=O)C2(C)CCCCC2)CC1 (as salt: hydrochloride) (hydrate or solvate) [Example 18, 1-Methyl-cyclohexanecarboxylic Acid {(1R)-1-Cyclohexylmethyl-2-[4-(2-methoxypheniyl)-piperidin-1-yl]-ethyl}-methyl-amide] | 169 to 171

More lines, now with the values ahead:

Row | melting point [°C] | Compound
13 | 222 to 224 | COc1ccccc1N1CCN(C[C@@H](CC2CCCCC2)N(C)C(=O)C2CCCCC2)CC1 (as salt: hydrochloride) [Example 3, Cyclohexanecarboxylic Acid {(1R)-1-Cyclohexylmethyl-2-[4-(2-methoxyphenyl)-piperazin-1-yl]-ethyl}-methyl-amide]
14 | 121 to 123 | O=C(N[C@H](CC1CCCCC1)CN1CCN(c2ncccn2)CC1)C1CCCCC1 (as salt: hydrochloride) [Example 10, Cyclohexanecarboxylic Acid {(1R)-1-Cyclohexylmethyl-2-[4-(pyrimidin-2-yl)-piperazin-1-yl]-ethyl}-amide]
15 | 112 to 114 | O=C(N[C@H](CC1CCCCC1)CN1CCN(c2ncccn2)CC1)C1CCC1 (as salt: hydrochloride) [Example 11, Cyclobutane Carboxylic Acid {(1R)-1-Cyclohexylmethyl-2-[4-(pyrimidin-2-yl)-piperazin-1-yl]-ethyl}-amide]
16 | 107 to 109 | COc1cccc(N2CCN(C[C@H](CC3CCCCC3)NC(=O)C3CCCCC3)CC2)n1 (as salt: hydrochloride) [Example 12, Cyclohexane Carboxylic Acid {(1S)-1-Cyclohexylmethyl-2-[4-(6methoxypyridin-2-yl)-piperazin-1-yl]-ethyl}-amide]
17 | 229 to 232 | O=C(N[C@H](CC1CCCCC1)CN1CCN(c2nc3ccccc3s2)CC1)C1CCCCC1 (as salt: hydrochloride) [Example 13, Cyclohexanecarboxylic Acid {(1R)-1-Cyclohexylmethyl-2-[4-(benzothiazol-2-yl)-piperazin-1-yl]-ethyl}-amide]
18 | 119 to 121 | COc1ccccc1N1CCN(C[C@@H](CC2CCCCC2)NC(=O)C2(C)CCCCC2)CC1 (as salt: hydrochloride) (hydrate or solvate) [Example 2, 1-Methyl-cyclohexanecarboxylic Acid of {(1R)-1-Cyclohexylmethyl-2-[4-(2-methoxyphenyl)-piperazin-1-yl]-ethyl}-amide]
19 | 100 to 103 | COc1ccccc1C1CCN(C[C@@H](CC2CCCCC2)NC(=O)C2CCCCC2)CC1 (as salt: hydrochloride) (hydrate or solvate) [Example 15, Cyclohexanecarboxylic Acid {(1R)-1-Cyclohexylmethyl-2-[4-(2-methoxyphenyl)-piperidin-1-yl]-ethyl}-amide]
20 | 155 to 159 | O=C(N[C@H](CC1CCCCC1)CN1CCN(c2nccc3ccccc23)CC1)C1CCCCC1 (as salt: hydrochloride) [Example 14, Cyclohexanecarboxylic Acid {(1R)-1-Cyclohexylmethyl-2-[4-(isoquinolin-1-yl)-piperazin-1-yl]-ethyl}-amide]
21 | 121 to 131 | COc1ccccc1N1CCN(C[C@@H](CC2CCCCC2)NC(=O)C2CCCCC2)CC1 (as salt: hydrochloride) [Example 1, Cyclohexanecarboxylic Acid {(1R)-1-Cyclohexylmethyl-2-[4-(2-methoxyphenyl)-piperazin-1-yl]-ethyl}-amide]

Target: T1, human 5-HT1A receptor (Homo sapiens, UniProt P08908)
T1 construct: expressed in transfected cells; host or cells: CHO cells (stably transfected)
T1 sequence (P08908 1-422): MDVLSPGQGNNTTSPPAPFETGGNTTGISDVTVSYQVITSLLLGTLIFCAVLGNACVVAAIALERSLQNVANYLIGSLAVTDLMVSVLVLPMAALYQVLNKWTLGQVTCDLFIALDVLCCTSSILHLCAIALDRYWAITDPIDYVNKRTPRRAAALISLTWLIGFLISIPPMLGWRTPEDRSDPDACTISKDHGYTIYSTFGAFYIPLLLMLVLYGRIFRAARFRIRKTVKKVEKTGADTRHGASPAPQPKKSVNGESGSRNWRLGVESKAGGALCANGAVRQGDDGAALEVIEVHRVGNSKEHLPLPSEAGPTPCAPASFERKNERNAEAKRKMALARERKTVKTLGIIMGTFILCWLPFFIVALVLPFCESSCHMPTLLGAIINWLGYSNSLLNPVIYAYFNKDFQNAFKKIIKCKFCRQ
Test: Displacement of [3H] 8-OHDPAT from the 5-HT1A receptor in transfected CHO cells
Format: binding
Settings: displacement of [3H] 8-OHDPAT; CHO cells stably transfected with the human 5-HT1A receptor; read-out: 5-HT1A Affinity (IC50)
Source text: Affinity for the serotonin 5-HT1A receptor was established by assaying the test compound's ability to displace [^3H] 8-OHDPAT from its binding site on the receptor complex in CHO cells stably transfected with the human 5-HT1A receptor following the procedure described by J. Dunlop, Y. Zhang, D. Smith and L. Schechter (Eur. J. Pharmacol., submitted; variation of a procedure described by J. Zgombick et al., Naunyn-Schmiedeberg's Arch. Pharmacol., 354, 226-236 (1996)).

Row | Compound | IC50 [nM]
22 | COc1ccccc1N1CCN(C[C@@H](CC2CCCCC2)N(C)C(=O)C2(C)CCCCC2)CC1 [Example 4, 1-Methyl-cyclohexanecarboxylic Acid {(1R)-1-Cyclohexylmethyl-2-[4-(2-methoxyphenyl)-piperazin-1-yl]-ethyl}-methyl-amide] | 2.82
23 | COc1ccccc1C1CCN(C[C@@H](CC2CCCCC2)NC(=O)C2(C)CCCCC2)CC1 [Example 16, 1-Methyl-cyclohexanecarboxylic acid {(1R)-1-cyclohexylmethyl-2-[4-(2-methoxyphenyl)-piperidin-1-yl]-ethyl}-amide] | 5.97
24 | COc1ccccc1C1CCN(C[C@@H](CC2CCCCC2)NC(=O)C(C)(C)C)CC1 [Example 19, N-{(1R)-1-Cyclohexylmethyl-2-[4-(2-methoxyphenyl)-piperidin-1-yl]-ethyl}-2,2-dimethyl-propionamide] | 2.19
25 | COc1ccccc1C1CCN(C[C@@H](CC2CCCCC2)N(C)C(=O)C(C)(C)C)CC1 [Example 20, N-{(1R)-1-Cyclohexylmethyl-2-[4-(2-methoxyphenyl)-piperidin-1-yl]-ethyl}-2,2,N-trimethyl-propionamide] | 5
26 | CN(C(=O)C1(C)CCCCC1)[C@H](CC1CCCCC1)CN1CCN(c2cccc3[nH]ccc23)CC1 [Example 8] | 32.7
27 | O=C(N[C@H](CC1CCCCC1)CN1CCN(c2nccc3ccccc23)CC1)C1CCCCC1 [Example 14, Cyclohexanecarboxylic Acid {(1R)-1-Cyclohexylmethyl-2-[4-(isoquinolin-1-yl)-piperazin-1-yl]-ethyl}-amide] | 1.69

Target: T1, human 5-HT1A receptor
Test: Antagonist activity: antagonism of 8-OHDPAT inhibition of forskolin-stimulated cAMP accumulation in transfected CHO cells
Format: cell-based
Settings: CHO cells with human 5-HT1A receptor
Source text: Methods, 40, 47-55 (1998); variation of a procedure described by J. Zgombick et al., Naunyn-Schmiedeberg's Arch. Pharmacol., 354, 226-236 (1996)].

Row | Compound | IC50 [nM]
28 | COc1ccccc1N1CCN(C[C@@H](CC2CCCCC2)N(C)C(=O)C2(C)CCCCC2)CC1 [Example 4, 1-Methyl-cyclohexanecarboxylic Acid {(1R)-1-Cyclohexylmethyl-2-[4-(2-methoxyphenyl)-piperazin-1-yl]-ethyl}-methyl-amide] | 10.2
29 | COc1ccccc1C1CCN(C[C@@H](CC2CCCCC2)NC(=O)C2(C)CCCCC2)CC1 [Example 16, 1-Methyl-cyclohexanecarboxylic acid {(1R)-1-cyclohexylmethyl-2-[4-(2-methoxyphenyl)-piperidin-1-yl]-ethyl}-amide] | 46
30 | COc1ccccc1C1CCN(C[C@@H](CC2CCCCC2)NC(=O)C(C)(C)C)CC1 [Example 19, N-{(1R)-1-Cyclohexylmethyl-2-[4-(2-methoxyphenyl)-piperidin-1-yl]-ethyl}-2,2-dimethyl-propionamide] | 40
